Assay results: patent US11672802B2, “Induction of immune tolerance by using methotrexate” (Genzyme Corporation, priority 2011, dated 2023)

Columns and labels:
[1] = tested on: allogeneic heart transplant; test: Murine allogeneic heart transplant model, graft survival; format: in vivo, mice (C57BL/6 donor, Balb/c recipient); conditions: mouse, in vivo
Method: Polyclonal antibody mATG was administered as an intraperitoneal injection of 5 mg/kg every four weeks or as two 20 mg/kg doses given four days apart when in the transplant setting with the first dose given on the day of transplant (day 0).
C57BL/6 and BALB/c mice were obtained from Charles River (Kingston, N.Y. or Raleigh, N.C.) and used in these experiments between 8 and 13 weeks of age. The donor allogenic C57BL/6 mice were first anesthetized with an intraperitoneal injection of Ketamine (Fort Dodge Animal Health/Pfizer, Fort Dodge, Iowa) and Xylazine (Lloyd, Shenandoah, Iowa) and a median sternotomy was performed. […] The ascending aorta and pulmonary artery were then transected, the graft removed from the donor and the heart was stored in ice-cold saline until engraftment. A recipient mouse (Balb/c) was similarly anesthetized and prepped as described above for donor mice, except that the abdominal cavity was opened. […] After hemostasis was confirmed, the abdominal muscle was closed with a running 5-O Vicryl suture (Ethicon, Johnson & Johnson, Somerville, N.J.), and the skin closed with running 5-0 Ethilon suture (Ethicon). Standard post-op pain assessment and management was performed. Grafts were assessed by palpation 5-7 times per week for the first 30 day, and then 3-4 times per week until the end of the study.

anti-rhGAA IgG = test: Anti-rhGAA IgG ELISA titers in mice treated with rhGAA; format: in vivo
Method: Recombinant human alglucosidase alfa (rhGAA, marketed by Genzyme Corp. as Myozyme®) was used as a formulated drug product. Mice were treated weekly with 20 mg/kg of rhGAA by bolus tail vein injection unless stated differently. All mice were treated prophylactically with 5 to 30 mg/kg diphenhydramine (Baxter Healthcare Corporation, Deerfield, Ill.) intraperitoneally prior to rhGAA administration. Control animals were treated intravenously with either sterile 0.9% saline or rhGAA-formulation buffer. Methotrexate treatment
Mice were bled 4-6 days following rhGAA treatment and specific IgG was measured by ELISA. […] Endpoint titers were defined as the reciprocal of the sample dilution resulting in an absorbance value of 0.2 using Softmax software (Molecular Devices, Sunnyvale, Calif.).
C57Bl/6 mice were treated with one 20 mg/kg intravenous dose of rhGAA (Genzyme Corporation), 3 consecutive intraperitoneal doses of 5 mg/kg methotrexate (APP Pharmaceuticals, LLC), and either 1D11 or 13C4 at 5 mg/kg (Genzyme Corporation) for 3 doses every other day. Methotrexate, 1D11, and 13C4 treatment commenced with rhGAA injections. Spleens were collected 7 days after treatment initiation and were processed as described above for B cells, culture and flow analysis. Additionally, rhGAA titer data was obtained by treating animals as described above, with rhGAA dosed weekly over 12 weeks, methotrexate dosed for either 1 or 3 cycles, and 1D11 or 13C4 dosed 3 times a week every other day for 12 weeks. Serum samples were collected every 2 weeks for ELISA analysis.

anti-alemtuzumab IgG = test: Anti-alemtuzumab IgG ELISA titers in huCD52 Tg mice
From the text: Alemtuzumab-related studies employed human CD52 (huCD52) transgenic (Tg) mice between 6-12 weeks of age that were obtained from Charles River Laboratories/Genzyme Corp. Mice were housed and maintained in accordance with the Guide for Care and Use of Laboratory Animals and under American Association for Accreditation of Laboratory Animals Care I accreditation and all animal protocols used in these studies were approved by the Institutional Animals Care and Use Committee.
Monoclonal antibody alemtuzumab was administered intravenously as either a single injection of 0.5 mg/kg or in either a three or five day cycle of 0.5 mg/kg/day.
Methotrexate (Calbiochem catalog #454125) was administered at 0.5, 1.0, 2.0 or 5 mg/kg by intraperitoneal injection for 1-3 cycles, where each cycle equals either three, six or seven consecutive days of injection depending upon the experiment.
Mice were bled 4-6 days following alemtuzumab treatment and specific anti-alemtuzumab IgG was measured by ELISA. Briefly, 96-well plates (Corning Inc., Corning, N.Y., USA) were coated overnight with 3 μg/ml of alemtuzumab in PBS (pH 7.2). Following blocking with 0.1% BSA in PBS, serial dilutions of serum were added in duplicate to alemtuzumab-coated plates and incubated at 37° C. for 1 h. The plates were washed, and horseradish peroxidase-conjugated goat anti-mouse IgG secondary antibody (Southern Biotechnology Associates, Birmingham, Ala., USA) was added and allowed to incubate for 1 h at 37° C. Following a final wash, TMB substrate (BioFx, Owings Mills, Md., USA) was added and allowed to develop for 15 min at room temperature. The reaction was stopped by the addition of 1 N HCl and absorbance values were read at 450/650 nm on an ELISA plate reader (Molecular Devices, Sunnyvale, Calif., USA). End-point titers were defined as the antilog of the logarithmically transformed sample dilution interpolated at an absorbance value of 0.2 using Excel software (Microsoft, Redmond, Wash., USA).

[2] = tested on: anti-alemtuzumab antibodies; conditions: rheumatoid arthritis patients, single dose escalation study; cited from earlier work
[3] = tested on: circulating and splenic T cells and B cells; test: Flow cytometry of alemtuzumab-mediated lymphocyte depletion in blood and spleen; format: in vivo, huCD52 Tg mice
Method: For splenocyte and lymph node cell preparations single-cell suspensions were generated from harvested mouse spleens or inguinal and mesenteric lymph nodes by homogenization between frosted glass slides into PBS containing 2% FCS. For splenocyte preparations, red blood cells were lysed by 1-2 minute incubation with a red blood cell lysis solution (BD Biosciences, San Diego, Calif.). Blood was isolated by retro-orbital bleeding and cell preparations were performed by lysing red blood cells with red blood cell lysing solution (BD Biosciences) for 20-30 minutes. For all tissue preparations, live cells were enumerated using the ViCell automated counter (Beckman Coulter, Fullerton, Calif.). Following isolation, all cell preparations were washed with PBS/2% FCS prior to use in the assays described below.
For evaluation of cell populations within different tissues, single cell suspensions of the tissues were incubated with fluorochrome-conjugated antibodies that included anti-mouse CD4, CD8, CD25, CD44, CD62L (all antibodies from BD Biosciences or eBioscience, San Diego, Calif.). Intracellular Foxp3 expression analysis was performed according to the anti-Foxp3 manufacturer's protocol (eBiosciences, San Diego, Calif.). Following incubation with the antibodies, cells were washed and analyzed by flow cytometry (FACSCanto, BD Biosciences and FCS Express software, De Novo Software, Los Angeles, Calif.).

[4] = alemtuzumab 0.5 mg/kg iv five consecutive days
[5] = peripheral blood, four weeks after five consecutive days of 0.5 mg/kg iv

COc1c(C)c2c(c(O)c1C/C=C(\C)CCC(=O)OCCN1CCOCC1)C(=O)OC2 [mycophenolate mofetil]
graft survival when co-administered with mATG [1]: failed to significantly prolong graft survival

rhGAA: recombinant human acid alpha-glucosidase, marketed by Genzyme as Myozyme
ADA to rhGAA (anti-rhGAA IgG; T cell deficient Nu/Nu mice): little to no ADA | animals exhibiting high anti-rhGAA titers (anti-rhGAA IgG; week 6, rhGAA alone, rhGAA + methotrexate, or with 5 mg/kg 1D11 or 13C4): two

O=P1(N(CCCl)CCCl)NCCCO1 (stereo not drawn) [cyclophosphamide]
graft survival when co-administered with mATG [1]: failed to significantly prolong graft survival

alemtuzumab: lymphocyte-depleting humanized anti-CD52 monoclonal antibody
ADA responses elicited (anti-alemtuzumab IgG; alemtuzumab 0.5 mg/kg iv): significant ADA responses | ADA response following the fifth dose (anti-alemtuzumab IgG; alemtuzumab 0.5 mg/kg monthly): no longer generated anti-alemtuzumab antibodies | ADA titers against alemtuzumab (anti-alemtuzumab IgG; huCD52 Tg CD1 mice): > 100,000 | patients in whom anti-alemtuzumab antibodies developed [2]: 63% | percent depletion of circulating B cells ([3]; 24 hours after a single dose of alemtuzumab): 92% | splenic follicular, B1 and regulatory B cells [3, 4]: depleted at one and/or two weeks | splenic marginal zone, transitional 1 and transitional 2 B cells [3, 4]: not depleted at any of the time-points | splenic transitional 3 B cells [3, 4]: only depleted after one week of treatment | depletion of circulating T cells by fifth monthly dose of alemtuzumab ([3]; alemtuzumab alone, or with methotrexate 5 mg/kg daily for first three days): no longer deplete T cells | recovery of CD19+ B cell numbers [3, 5]: returned to control levels | recovery of total CD3+ T cells, CD4+ T helper cells and CD8+ T cytotoxic cells [3, 5]: did not recover to pre-treatment levels | earliest depletion observed in peripheral blood, post-dosing ([3]; single dose of alemtuzumab): three hours | percent depletion of circulating B cells ([3]; three days after a single dose of alemtuzumab): 36% | splenic cell subsets ([3]; three days after a single dose of alemtuzumab, no methotrexate): significantly depleted
